Source: ChEMBL document CHEMBL5465560, “Selectivity Literature for EUbOPEN Chemogenomic Library” (2024)
Values belong to the compound of their own block, whether it stands above or below them.

Key:
[1] = molecular target: Protein kinase C beta type (Homo sapiens, UniProt P05771); test: Selectivity interaction (Kinase panel (Z-LYTE Assay)) EUB0001632a PRKCB; conditions: at 10 µM
[2] = test system: Hepatocyte growth factor receptor (Homo sapiens), P08581 [M1250T]; test: (§1) Selectivity interaction (KinomeScan (DiscoverX)) EUB0000666a MET; conditions: at 10 µM
[3] = test system: Hepatocyte growth factor receptor (Homo sapiens), P08581 [Y1235D]; test: as §1; conditions: at 10 µM
Sequence of Hepatocyte growth factor receptor (Homo sapiens), P08581 [Y1235D] (P08581 whole entry Y1235D): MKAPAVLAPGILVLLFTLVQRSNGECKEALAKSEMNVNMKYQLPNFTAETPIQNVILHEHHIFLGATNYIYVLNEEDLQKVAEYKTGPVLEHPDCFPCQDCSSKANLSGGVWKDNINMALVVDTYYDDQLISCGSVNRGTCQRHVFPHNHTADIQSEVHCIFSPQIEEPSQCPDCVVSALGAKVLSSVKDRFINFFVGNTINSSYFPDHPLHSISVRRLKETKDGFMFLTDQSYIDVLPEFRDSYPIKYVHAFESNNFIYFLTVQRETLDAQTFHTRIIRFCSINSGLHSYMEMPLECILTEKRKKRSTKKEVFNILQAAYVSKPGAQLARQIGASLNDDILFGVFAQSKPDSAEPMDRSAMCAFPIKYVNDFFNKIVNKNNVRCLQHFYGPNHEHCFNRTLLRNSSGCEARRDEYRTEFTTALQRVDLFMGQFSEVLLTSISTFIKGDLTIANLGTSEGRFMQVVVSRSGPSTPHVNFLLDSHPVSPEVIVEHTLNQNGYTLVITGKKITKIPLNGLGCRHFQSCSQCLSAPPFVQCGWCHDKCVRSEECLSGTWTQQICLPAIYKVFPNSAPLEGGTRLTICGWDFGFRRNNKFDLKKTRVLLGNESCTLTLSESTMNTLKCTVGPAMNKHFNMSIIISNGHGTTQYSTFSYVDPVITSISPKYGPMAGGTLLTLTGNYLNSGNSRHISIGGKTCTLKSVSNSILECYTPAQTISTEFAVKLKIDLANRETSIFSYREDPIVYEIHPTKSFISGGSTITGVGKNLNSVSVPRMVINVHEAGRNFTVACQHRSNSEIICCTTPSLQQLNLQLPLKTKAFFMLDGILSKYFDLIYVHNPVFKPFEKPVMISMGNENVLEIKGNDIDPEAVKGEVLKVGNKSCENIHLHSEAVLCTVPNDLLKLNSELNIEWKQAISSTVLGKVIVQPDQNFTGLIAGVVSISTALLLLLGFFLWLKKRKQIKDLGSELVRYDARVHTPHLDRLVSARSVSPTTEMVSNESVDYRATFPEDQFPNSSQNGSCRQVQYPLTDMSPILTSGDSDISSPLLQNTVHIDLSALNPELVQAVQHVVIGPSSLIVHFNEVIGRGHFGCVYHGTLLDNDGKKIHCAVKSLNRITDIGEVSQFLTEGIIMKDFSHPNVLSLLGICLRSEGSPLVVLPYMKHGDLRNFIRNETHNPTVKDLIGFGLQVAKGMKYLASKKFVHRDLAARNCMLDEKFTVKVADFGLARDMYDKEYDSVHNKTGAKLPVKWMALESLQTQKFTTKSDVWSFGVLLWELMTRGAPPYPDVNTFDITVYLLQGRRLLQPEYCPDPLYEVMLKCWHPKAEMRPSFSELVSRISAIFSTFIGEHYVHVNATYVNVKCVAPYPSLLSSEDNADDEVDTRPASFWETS

[4] = molecular target: Vascular endothelial growth factor receptor 1 (Homo sapiens) (UniProt P17948); test: Selectivity interaction (KinomeScan (DiscoverX)) EUB0000607a FLT1; conditions: at 10 µM
Sequence of Vascular endothelial growth factor receptor 1 (Homo sapiens) (P17948 whole entry): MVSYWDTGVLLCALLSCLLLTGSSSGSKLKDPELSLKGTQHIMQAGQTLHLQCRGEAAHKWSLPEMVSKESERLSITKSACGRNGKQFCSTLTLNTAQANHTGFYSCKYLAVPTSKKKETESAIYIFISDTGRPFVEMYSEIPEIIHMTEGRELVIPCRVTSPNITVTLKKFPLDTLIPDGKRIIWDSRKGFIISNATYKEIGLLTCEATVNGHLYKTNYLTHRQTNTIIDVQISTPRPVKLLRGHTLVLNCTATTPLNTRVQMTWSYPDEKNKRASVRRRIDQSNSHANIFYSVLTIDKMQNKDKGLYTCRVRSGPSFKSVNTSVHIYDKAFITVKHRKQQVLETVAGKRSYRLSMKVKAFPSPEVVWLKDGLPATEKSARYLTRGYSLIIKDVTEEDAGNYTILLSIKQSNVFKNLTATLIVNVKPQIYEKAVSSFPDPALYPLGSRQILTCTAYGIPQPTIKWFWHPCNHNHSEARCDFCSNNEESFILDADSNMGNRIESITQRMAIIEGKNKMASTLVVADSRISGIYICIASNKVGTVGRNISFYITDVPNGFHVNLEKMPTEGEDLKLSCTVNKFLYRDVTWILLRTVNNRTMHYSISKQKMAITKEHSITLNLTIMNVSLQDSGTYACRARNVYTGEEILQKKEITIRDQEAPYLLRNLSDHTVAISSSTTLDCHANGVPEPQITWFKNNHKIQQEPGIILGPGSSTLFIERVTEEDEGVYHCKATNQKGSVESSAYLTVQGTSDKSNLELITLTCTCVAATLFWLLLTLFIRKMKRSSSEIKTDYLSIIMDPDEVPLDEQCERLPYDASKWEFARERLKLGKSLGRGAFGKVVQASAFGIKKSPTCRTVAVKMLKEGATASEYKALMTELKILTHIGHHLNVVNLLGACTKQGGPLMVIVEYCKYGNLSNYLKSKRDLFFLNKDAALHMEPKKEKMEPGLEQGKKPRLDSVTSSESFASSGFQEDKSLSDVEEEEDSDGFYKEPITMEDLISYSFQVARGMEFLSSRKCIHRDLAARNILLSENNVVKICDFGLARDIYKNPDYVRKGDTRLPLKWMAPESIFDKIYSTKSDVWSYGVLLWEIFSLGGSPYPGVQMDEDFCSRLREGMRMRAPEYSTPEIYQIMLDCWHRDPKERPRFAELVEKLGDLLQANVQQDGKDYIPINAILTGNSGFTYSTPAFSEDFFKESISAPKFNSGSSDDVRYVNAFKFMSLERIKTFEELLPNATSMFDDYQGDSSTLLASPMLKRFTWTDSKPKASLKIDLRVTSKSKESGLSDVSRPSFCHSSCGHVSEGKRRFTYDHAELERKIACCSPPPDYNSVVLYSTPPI

[5] = molecular target: Calcium/calmodulin-dependent protein kinase type 1 (Homo sapiens) (UniProt Q14012); test: Selectivity interaction (Upstate Kinase Profiler service (Millipore)) EUB0000056c CAMK1; conditions: at 1 µM
Sequence of Calcium/calmodulin-dependent protein kinase type 1 (Homo sapiens) (Q14012 whole entry, looked up): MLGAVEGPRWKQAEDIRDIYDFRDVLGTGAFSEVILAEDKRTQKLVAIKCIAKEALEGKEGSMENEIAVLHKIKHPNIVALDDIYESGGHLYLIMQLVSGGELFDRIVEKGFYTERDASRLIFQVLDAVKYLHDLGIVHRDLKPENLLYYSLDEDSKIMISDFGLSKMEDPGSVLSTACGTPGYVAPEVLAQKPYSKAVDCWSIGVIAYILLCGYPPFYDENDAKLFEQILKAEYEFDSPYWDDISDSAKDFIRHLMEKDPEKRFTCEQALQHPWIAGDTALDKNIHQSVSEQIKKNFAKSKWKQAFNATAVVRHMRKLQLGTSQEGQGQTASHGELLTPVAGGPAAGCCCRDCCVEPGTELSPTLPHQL

[6] = molecular target: Serine/threonine-protein kinase Nek7 (Homo sapiens) (UniProt Q8TDX7); test: Selectivity interaction (Kinase panel (Invitrogen)) EUB0000639a NEK7; conditions: at 200 nM
Sequence of Serine/threonine-protein kinase Nek7 (Homo sapiens) (Q8TDX7 whole entry, looked up): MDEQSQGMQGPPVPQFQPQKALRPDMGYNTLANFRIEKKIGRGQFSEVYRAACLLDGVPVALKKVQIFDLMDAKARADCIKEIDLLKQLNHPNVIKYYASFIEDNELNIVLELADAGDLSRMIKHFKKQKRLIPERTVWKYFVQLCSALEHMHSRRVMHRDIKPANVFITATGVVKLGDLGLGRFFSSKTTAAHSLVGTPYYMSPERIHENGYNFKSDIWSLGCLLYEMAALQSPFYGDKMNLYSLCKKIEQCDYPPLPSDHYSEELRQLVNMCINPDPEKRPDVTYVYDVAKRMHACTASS

[7] = molecular target: T1, Protein kinase C epsilon type (Homo sapiens) (UniProt Q02156); test: Selectivity interaction (Millipore kinase profiler) EUB0000124b PRKCE; conditions: at 10 µM
T1 sequence (whole entry): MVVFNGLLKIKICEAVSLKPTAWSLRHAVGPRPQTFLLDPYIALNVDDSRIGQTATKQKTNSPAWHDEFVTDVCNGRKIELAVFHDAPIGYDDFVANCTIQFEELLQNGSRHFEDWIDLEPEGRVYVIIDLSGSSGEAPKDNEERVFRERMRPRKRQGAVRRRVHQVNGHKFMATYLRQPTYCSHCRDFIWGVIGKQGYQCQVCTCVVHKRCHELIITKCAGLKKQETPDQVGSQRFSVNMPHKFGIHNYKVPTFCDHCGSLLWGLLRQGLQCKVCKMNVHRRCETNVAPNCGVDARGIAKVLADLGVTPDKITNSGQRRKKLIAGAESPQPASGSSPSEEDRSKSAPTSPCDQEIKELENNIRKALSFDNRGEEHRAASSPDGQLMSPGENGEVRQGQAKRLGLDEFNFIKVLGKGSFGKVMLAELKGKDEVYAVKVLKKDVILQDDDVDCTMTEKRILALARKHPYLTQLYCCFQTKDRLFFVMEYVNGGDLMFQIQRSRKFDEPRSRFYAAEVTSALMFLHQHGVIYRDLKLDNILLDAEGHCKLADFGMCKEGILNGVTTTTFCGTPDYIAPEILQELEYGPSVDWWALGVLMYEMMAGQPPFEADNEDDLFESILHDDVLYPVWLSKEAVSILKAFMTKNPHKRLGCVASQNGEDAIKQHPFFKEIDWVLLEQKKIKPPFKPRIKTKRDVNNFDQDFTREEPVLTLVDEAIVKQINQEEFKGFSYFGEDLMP

[8] = molecular target: Ribosomal protein S6 kinase alpha-4 (Homo sapiens) (UniProt O75676); test: Selectivity interaction (KinomeScan (DiscoverX)) EUB0000045b RPS6KA4; conditions: at 1 µM
Sequence of Ribosomal protein S6 kinase alpha-4 (Homo sapiens) (O75676 whole entry, looked up): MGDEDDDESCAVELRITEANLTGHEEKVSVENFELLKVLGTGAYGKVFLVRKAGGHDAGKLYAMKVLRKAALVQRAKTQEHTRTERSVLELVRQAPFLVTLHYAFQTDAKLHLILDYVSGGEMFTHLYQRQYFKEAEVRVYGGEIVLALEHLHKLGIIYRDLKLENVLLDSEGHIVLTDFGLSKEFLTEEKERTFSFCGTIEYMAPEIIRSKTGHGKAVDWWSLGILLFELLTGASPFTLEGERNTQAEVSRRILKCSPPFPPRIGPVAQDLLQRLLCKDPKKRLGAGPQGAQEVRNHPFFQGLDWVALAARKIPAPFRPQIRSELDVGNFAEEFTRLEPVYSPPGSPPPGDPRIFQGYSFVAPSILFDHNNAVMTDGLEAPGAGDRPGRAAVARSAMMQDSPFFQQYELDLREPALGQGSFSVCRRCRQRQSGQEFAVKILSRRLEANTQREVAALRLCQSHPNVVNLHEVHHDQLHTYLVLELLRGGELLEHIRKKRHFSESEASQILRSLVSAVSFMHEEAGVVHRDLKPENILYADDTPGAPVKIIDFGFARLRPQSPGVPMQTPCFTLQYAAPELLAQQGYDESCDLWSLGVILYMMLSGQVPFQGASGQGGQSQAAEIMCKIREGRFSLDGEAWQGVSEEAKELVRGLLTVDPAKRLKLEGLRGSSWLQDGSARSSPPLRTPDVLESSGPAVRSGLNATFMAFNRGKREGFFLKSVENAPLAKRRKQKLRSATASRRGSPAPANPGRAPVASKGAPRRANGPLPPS

[9] = molecular target: T2, Phosphatidylinositol 5-phosphate 4-kinase type-2 beta (Homo sapiens) (UniProt P78356); test: Selectivity interaction (KinomeScan (DiscoverX)) EUB0000092b PIP4K2B; conditions: at 10 µM
T2 sequence (whole entry): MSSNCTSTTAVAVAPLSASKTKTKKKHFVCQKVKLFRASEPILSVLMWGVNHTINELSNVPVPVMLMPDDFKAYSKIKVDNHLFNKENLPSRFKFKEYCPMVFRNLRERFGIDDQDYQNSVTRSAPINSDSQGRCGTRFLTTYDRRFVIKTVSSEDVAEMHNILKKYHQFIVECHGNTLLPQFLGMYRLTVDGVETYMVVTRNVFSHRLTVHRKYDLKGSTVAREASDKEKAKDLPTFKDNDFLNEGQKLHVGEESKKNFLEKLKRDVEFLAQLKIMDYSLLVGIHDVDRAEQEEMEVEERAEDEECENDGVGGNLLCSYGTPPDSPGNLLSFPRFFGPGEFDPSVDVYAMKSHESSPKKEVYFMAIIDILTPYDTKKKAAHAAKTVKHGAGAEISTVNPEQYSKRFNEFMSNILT

[10] = molecular target: T3, Serine/threonine-protein kinase ICK (Homo sapiens) (UniProt Q9UPZ9); conditions: at 10 µM
T3 sequence (whole entry): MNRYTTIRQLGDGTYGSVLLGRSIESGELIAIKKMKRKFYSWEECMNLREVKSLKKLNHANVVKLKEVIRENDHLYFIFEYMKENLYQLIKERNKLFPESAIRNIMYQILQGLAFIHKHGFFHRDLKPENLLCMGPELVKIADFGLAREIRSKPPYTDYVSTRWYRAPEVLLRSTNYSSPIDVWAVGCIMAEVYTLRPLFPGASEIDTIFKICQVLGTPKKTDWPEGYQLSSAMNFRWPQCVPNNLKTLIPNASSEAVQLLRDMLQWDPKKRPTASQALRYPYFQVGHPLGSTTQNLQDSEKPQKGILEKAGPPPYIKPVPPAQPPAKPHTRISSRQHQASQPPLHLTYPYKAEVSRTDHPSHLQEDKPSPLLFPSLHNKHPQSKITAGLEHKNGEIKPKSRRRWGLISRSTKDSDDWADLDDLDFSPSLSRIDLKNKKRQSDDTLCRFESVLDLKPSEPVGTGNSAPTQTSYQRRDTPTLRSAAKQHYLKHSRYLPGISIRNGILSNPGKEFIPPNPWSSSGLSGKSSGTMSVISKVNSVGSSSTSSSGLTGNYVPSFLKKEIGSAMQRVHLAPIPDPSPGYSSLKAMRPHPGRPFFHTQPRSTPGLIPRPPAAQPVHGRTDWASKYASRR

Sequence of Protein kinase C beta type (P05771 2-671 limits assumed): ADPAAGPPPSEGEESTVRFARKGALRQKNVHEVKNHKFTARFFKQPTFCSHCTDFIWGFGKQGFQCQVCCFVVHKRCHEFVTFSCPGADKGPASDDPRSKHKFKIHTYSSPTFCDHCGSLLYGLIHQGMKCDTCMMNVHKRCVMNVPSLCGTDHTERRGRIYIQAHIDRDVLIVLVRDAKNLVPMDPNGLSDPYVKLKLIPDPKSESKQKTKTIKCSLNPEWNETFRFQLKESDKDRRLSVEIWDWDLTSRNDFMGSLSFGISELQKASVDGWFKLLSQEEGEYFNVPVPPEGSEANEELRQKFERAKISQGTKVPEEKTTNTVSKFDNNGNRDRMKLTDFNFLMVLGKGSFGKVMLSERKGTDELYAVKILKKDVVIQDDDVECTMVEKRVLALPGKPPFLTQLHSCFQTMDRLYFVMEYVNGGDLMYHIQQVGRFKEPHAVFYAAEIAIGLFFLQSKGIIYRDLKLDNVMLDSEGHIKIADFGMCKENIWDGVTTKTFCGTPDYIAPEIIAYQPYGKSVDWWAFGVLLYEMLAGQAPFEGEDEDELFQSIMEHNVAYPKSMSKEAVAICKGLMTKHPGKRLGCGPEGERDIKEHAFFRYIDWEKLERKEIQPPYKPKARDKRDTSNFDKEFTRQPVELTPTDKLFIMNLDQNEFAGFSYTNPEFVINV

% of control [1]: 45.9%
SMILES: Cn1cc(-n2cnc3c(NCc4nc5cc(Cl)c(Cl)cc5[nH]4)nc(N4CCOCC4)nc32)cn1

SMILES: O=C(NOC[C@H](O)CO)c1ccc(F)c(F)c1Nc1ccc(I)cc1F
% of control [2]: 92% | % of control [3]: 100%

SMILES: CNC(=O)Nc1ccc(-c2nc(N3CC4CCC(C3)O4)c3cnn(C4CCC5(CC4)OCCO5)c3n2)cc1
% of control [4]: 92%

% of inhibition [5]: 2%
SMILES: Cc1ccc(-c2ccc3c(ccc4sc5c(c43)NC[C@@H](C)NC5=O)n2)cn1

% of inhibition [6]: -1.03%
SMILES: CC[C@@H]1[C@H](F)C(=O)N[C@@H]1COc1nccc2cc(C(N)=O)c(OC)cc12 [ZIMLOVISERTIB]

% of control [7]: 103%
SMILES: CC(=O)Nc1cccc(-n2c(=O)n(C3CC3)c(=O)c3c(Nc4ccc(I)cc4F)n(C)c(=O)c(C)c32)c1

SMILES: C=CC(=O)Nc1cc(-n2c(=O)ccc3cnc4ccc(-c5ccc(NS(C)(=O)=O)cc5)cc4c32)ccc1C
% of control [8]: 67%

SMILES: CCC(=O)N1CCN(c2ccc(-n3c(=O)ccc4cnc5ccc(-c6cnc7ccccc7c6)cc5c43)cc2C(F)(F)F)CC1
% of control [9]: 100%

SMILES: Cc1cc([C@@H](C)Nc2ccccc2C(=O)O)c2nc(N3CCOCC3)cc(=O)n2c1 [AZD-6482]
% of control [10]: 100%
